# Laboratory results from ChEMBL document CHEMBL1134487, “Design, synthesis, and biological evaluation of analogues of the antitumor agent, 2-(4-[(7-chloro-2-quinoxalinyl)oxy]phenoxy)propionic acid (XK469)” (2001).
# Active and inactive are the calls of the source. The rule behind the calls is not given here.
# Experiments:
# Mus musculus [1] = assay: In vivo activity against iv transplanted AML Leukemia 1498 tumors of mice; Not active; type: functional, organism-based
# Mus musculus [2] = assay: In vivo activity against transplanted colon-38 tumors of mice; type: functional, organism-based
# Mus musculus [3] = assay: In vivo activity against transplanted Mam-16/C tumors of mice; type: functional, organism-based
# Mus musculus [4] = assay: In vivo activity against transplanted Mel-B16 tumors of mice; Not active; type: functional, organism-based
# Mus musculus [5] = assay: In vivo activity against transplanted Mam-17/Adr tumors of mice; Not active; type: functional, organism-based
# Mus musculus [6] = assay: In vivo activity against transplanted Mam-17 tumors of mice; Not active; type: functional, organism-based
# Mus musculus [7] = assay: In vivo activity against transplanted Mam-16/C/Adr tumors of mice; Not active; type: functional, organism-based
# Mus musculus [8] = assay: In vivo activity against iv transplanted Leukemia L1210 tumors of mice; type: functional, organism-based
# Mus musculus [9] = assay: In vivo activity against transplanted Mam-16/C/ Taxol tumors of mice; Not active; type: functional, organism-based
# Mus musculus [10] = assay: In vivo activity against transplanted colon-26 tumors of mice; type: functional, organism-based
# Mus musculus [11] = assay: In vivo activity against transplanted Squam lung-LC12 tumors of mice; type: functional, organism-based
# Mus musculus [12] = assay: In vivo activity against transplanted Panc-03 tumors of mice; Not active; type: functional, organism-based
# Mus musculus [13] = assay: In vivo activity against transplanted Panc-02 tumors of mice; Not active; type: functional, organism-based
# Mus musculus [14] = assay: In vivo activity against transplanted colon-51 tumors of mice; Not active; type: functional, organism-based
# Mus musculus [15] = assay: In vivo antitumor activity against tumor […]; Inactive; type: functional, organism-based
# Mus musculus [16] = assay: In vivo activity tested against C3H mice bearing panc-03 murine tumor measured as log Kill value was based on tumors that grew at 800 mg/kg (po); type: functional, organism-based; design: dose 800 mg/kg
# Mus musculus [17] = assay: In vivo activity tested against C3H mice bearing panc-03 murine tumor measured as % treated/control calculated at 800 mg/kg (po); type: functional
# Mus musculus [18] = assay: In vivo activity tested against C3H mice bearing panc-03 murine tumor measured as body weight loss at 800 mg/kg (po); type: functional
# Mus musculus [19] = assay: In vivo activity tested against C3H mice bearing mammary adenocarcinoma -17/ADR tumor measured as body weight loss at 301 mg/kg (po); type: functional
# Mus musculus [20] = assay: In vivo activity tested against C3H mice bearing mammary adenocarcinoma -17/ADR tumor measured as % treated/control calculated at 301 mg/kg (po); type: functional
# Mus musculus [21] = assay: In vivo activity tested against C3H mice bearing mammary adenocarcinoma -17/ADR tumor measured as log Kill value was based on tumors that grew at 301 mg/kg (po); type: functional, organism-based; design: dose 301 mg/kg
# Mus musculus [22] = assay: In vivo activity tested against C3H mice bearing mammary adenocarcinoma -17/ADR tumor measured as activity rating at 301 mg/kg (po); type: functional
# Mus musculus [23] = assay: In vivo activity tested against C3H mice bearing panc-03 murine tumor measured as body weight loss at 700 mg/kg (po); type: functional
# Mus musculus [24] = assay: In vivo activity tested against C3H mice bearing panc-03 murine tumor measured as log Kill value was based on tumors that grew at 700 mg/kg (po); type: functional, organism-based; design: dose 700 mg/kg
# Mus musculus [25] = assay: In vivo activity tested against C3H mice bearing panc-03 murine tumor measured as % treated/control calculated at 700 mg/kg (po); type: functional
# Mus musculus [26] = assay: In vivo activity against transplanted Mel-B16 tumors of mice; type: functional, organism-based
# Mus musculus [27] = assay: In vivo activity against transplanted colon-51 tumors of mice; type: functional, organism-based
# Mus musculus [28] = assay: In vivo activity against transplanted Mam-16/C/Adr tumors of mice; type: functional, organism-based
# Mus musculus [29] = assay: In vivo activity against transplanted Panc-02 tumors of mice; type: functional, organism-based
# Mus musculus [30] = assay: In vivo activity against transplanted Mam-17/Adr tumors of mice; type: functional, organism-based
# Mus musculus [31] = assay: In vivo activity against transplanted Panc-03 tumors of mice; type: functional, organism-based
# Mus musculus [32] = assay: In vivo activity against transplanted Mam-17 tumors of mice; type: functional, organism-based
# Mus musculus [33] = assay: In vivo activity against transplanted Mam-16/C/ Taxol tumors of mice; type: functional, organism-based
# Mus musculus [34] = assay: In vivo activity against iv transplanted AML Leukemia 1498 tumors of mice; type: functional, organism-based
# Mus musculus [35] = assay: In vivo activity against iv transplanted Leukemia L1210 tumors of mice; Not active; type: functional, organism-based
# Mus musculus [36] = assay: In vivo activity against transplanted colon-26 tumors of mice; Not active; type: functional, organism-based
# Mus musculus [37] = assay: In vivo activity tested against C3H mice bearing panc-03 murine tumor at a dose of 330mg/kg, measured as % treated/control; type: functional
# Mus musculus [38] = assay: In vivo activity tested against C3H mice bearing panc-03 murine tumor at a dose of 330mg/kg, measured as activity rating; type: functional
SMILES,Log kill (Mus musculus [2]),Log kill (Mus musculus [3]),Log kill (Mus musculus [8]),Log kill (Mus musculus [10]),Log kill (Mus musculus [11]),Log kill (Mus musculus [26]),Log kill (Mus musculus [27]),Log kill (Mus musculus [29]),Log kill (Mus musculus [30]),Log kill (Mus musculus [31]),Log kill (Mus musculus [32]),other results
Nc1ccn([C@@H]2O[C@H](CO)[C@@H](O)C2(F)F)c(=O)n1,2.8,> 2.8,> 5,2.8,< 0.7,,,,,,,NA (Mus musculus [1]): inactive; NA (Mus musculus [4]): inactive; NA (Mus musculus [5]): inactive; NA (Mus musculus [6]): inactive; NA (Mus musculus [7]): inactive; NA (Mus musculus [9]): inactive; NA (Mus musculus [12]): inactive; NA (Mus musculus [13]): inactive; NA (Mus musculus [14]): inactive
CC(Oc1ccc(Sc2cnc3ccc(Cl)cc3n2)cc1)C(=O)O (centres undefined),,,,,,,,,,,,NA (Mus musculus [15]): inactive
CC(Oc1ccc(Oc2cnc3ccc(Cl)cc3n2)cc1)C(=O)NN (centres undefined),,,,,,,,,,,,Log kill (Mus musculus [16]): 0.75; T/C (Mus musculus [17]): 27%; Body weight loss (Mus musculus [18]): -6.5%
CC(Oc1ccc(Nc2cnc3ccc(Cl)cc3n2)cc1)C(=O)O (centres undefined),,,,,,,,,,,,NA (Mus musculus [15]): inactive
C[C@@H](Oc1ccc(Oc2cnc3ccc(Cl)cc3n2)cc1)C(=O)O [R(+)XK469],,,,,,,,,,,,Body weight loss (Mus musculus [19]): -8%; T/C (Mus musculus [20]): 2%; Log kill (Mus musculus [21]): 2.9; Activity rating (Mus musculus [22]): >2.8
CC(Oc1ccc(Oc2cnc3cc([N+](=O)[O-])ccc3n2)cc1)C(=O)O (centres undefined),,,,,,,,,,,,Body weight loss (Mus musculus [23]): -1.4%; Log kill (Mus musculus [24]): 0.42; T/C (Mus musculus [25]): 41%
COc1cc([C@@H]2c3cc4c(cc3[C@@H](O[C@@H]3O[C@@H]5CO[C@@H](C)O[C@H]5[C@H](O)[C@H]3O)[C@H]3COC(=O)[C@H]23)OCO4)cc(OC)c1O,1.9,2.8,> 5,< 0.7,> 2.8,< 0.7,0.7,< 0.7,< 0.7,1.9,1.9,NA (Mus musculus [1]): inactive; Log kill (Mus musculus [28]): < 0.7; Log kill (Mus musculus [33]): 1.2
CC(=O)O[C@H]1C(=O)[C@@]2(C)[C@H]([C@H](OC(=O)c3ccccc3)[C@]3(O)C[C@H](OC(=O)[C@H](O)[C@@H](NC(=O)c4ccccc4)c4ccccc4)C(C)=C1C3(C)C)[C@]1(OC(C)=O)CO[C@@H]1C[C@@H]2O,> 2.8,> 2.8,< 1,0.7,< 0.7,0.7,1.2,< 0.7,< 0.7,> 2.8,> 2.8,Log kill (Mus musculus [34]): < 0.7; Log kill (Mus musculus [28]): < 0.7; Log kill (Mus musculus [33]): < 0.7
Nc1ccn([C@@H]2O[C@H](CO)[C@@H](O)[C@@H]2O)c(=O)n1,1.9,1.9,> 5,< 0.7,< 0.7,< 0.7,< 0.7,< 0.7,2.8,< 0.7,1.9,Log kill (Mus musculus [34]): > 2.8; NA (Mus musculus [7]): inactive; NA (Mus musculus [9]): inactive
CC[C@@]1(O)C(=O)OCc2c1cc1n(c2=O)Cc2cc3ccccc3nc2-1,1.2,2.8,,,< 0.7,1.2,1.2,< 0.7,,> 2.8,,NA (Mus musculus [1]): inactive; NA (Mus musculus [35]): inactive; NA (Mus musculus [5]): inactive; NA (Mus musculus [6]): inactive; NA (Mus musculus [7]): inactive; NA (Mus musculus [9]): inactive; NA (Mus musculus [36]): inactive
CC(Oc1ccc(-c2ccc(Oc3cnc4ccc(Cl)cc4n3)cc2)cc1)C(=O)O (centres undefined),,,,,,,,,,,,NA (Mus musculus [15]): inactive
CC[C@]1(O)C[C@@H]2CN(CCc3c([nH]c4ccccc34)[C@@](C(=O)OC)(c3cc4c(cc3OC)N(C)[C@H]3[C@@](O)(C(=O)OC)[C@H](OC(C)=O)[C@]5(CC)C=CCN6CC[C@]43[C@@H]65)C2)C1,2.8,1.9,1.9,< 0.7,< 0.7,< 0.7,< 0.7,< 0.7,< 0.7,< 0.7,< 0.7,Log kill (Mus musculus [34]): < 0.7; Log kill (Mus musculus [28]): < 0.7; Log kill (Mus musculus [33]): < 0.7
CC(Oc1cccc(Oc2cnc3ccc(Cl)cc3n2)c1)C(=O)O (centres undefined),,,,,,,,,,,,T/C (Mus musculus [37]): 100%; Activity rating (Mus musculus [38]): <0.7
